Patent US10940139B2, “Compounds that interact with the Ras superfamily for the treatment of cancers, inflammatory diseases, rasopathies, and fibrotic disease” (Shy Therapeutics LLC, priority 2017, dated 2021)

Tests used:
Format in all cases: cell-based
[1] = system: MIA-PACA2 pancreatic cancer cell lines; experiment: Cell proliferation assay (CellTiter 96 AQueous One); conditions: Homo sapiens, MIA PaCa-2; at 30 μM, MIA-PACA2
Experimental: Cell lines: Tumor-derived pancreatic cancer cell lines MIA-PACA2 were purchased from ATCC and grown in complete DMEM-High Glucose medium supplemented with penicillin (100 U/mL), streptomycin (100 μg/mL), and 10% heat-inactivated FBS at 37° C. in a humidified incubator with 5% CO2.
Method: Cells are plated at 1000 cells/well density in 96-wells plate, starved ON, and the next day tested small molecules are added to the cells in the final concentration of 30 μM with 0.3% DMSO 3 hours prior to 10% FBS addition. After serum addition cells are incubated for 6 days at 37° C. in a humidified incubator with 5% CO2. For IC50 value determination, serial dilutions of compounds were added to cells under the same conditions.
Assay: At the end of the incubation period, cell cultures are tested using the CellTiter 96® AQueous One Solution Cell Proliferation Assay kit (Promega Corporation, Madison, Wis.) according to the manufacturer specifications. Briefly, assay is performed by adding 20 μl of the CellTiter 96 Aqueous One Solution Reagent directly to culture wells, followed by for 1-4 hours incubation at 37° C. in a humidified incubator with 5% CO2. At the end of incubation time, absorbance at 492 nm is recorded with the 96-well plate reader Eppendorf AF2200, and degree of small molecule-dependent proliferation inhibition is calculated from raw data assuming No Serum cells value as 100%.

[2] = system: TNFα production in RAW 264.7 macrophage cell line; experiment: Mouse TNF alpha quantification assay (LPS-stimulated macrophages, ELISA); conditions: RAW264.7, RAW 264.7 murine leukemia virus transformed macrophage cell lines, LPS stimulation, read-out: TNF-α % Inhibition at 30 μM
[3] = system: IL6 production in RAW 264.7 macrophage cell line; experiment: Mouse IL6 quantification assay (LPS-stimulated macrophages, ELISA); conditions: RAW264.7, RAW 264.7 murine leukemia virus transformed macrophage cell lines, LPS stimulation, read-out: IL-6 % Inhibition at 30 μM

Compound | inhibition at 30 µM [1] | inhibition at 30 µM [2] | inhibition at 30 µM [3]
COc1cc(CNc2nc(-c3ccccn3)nc3scc(-c4ccccc4)c23)ccc1OCC(N)=O | 76 to 100% |  | 
OCCn1ccc2c1CCCC2Nc1nc(-c2ccccn2)nc2scc(-c3ccccc3)c12 (centres unmarked) | 76 to 100% |  | 
Cc1[nH]nc(CCCN(C)c2nc(-c3ccccn3)nc3sc(-c4ccccc4)cc23)c1C#N | 76 to 100% |  | 
CC(=O)C1CCN(c2nc(-c3ccccn3)nc3scc(-c4ccccc4)c23)CC1 | 76 to 100% |  | 
O=C(COn1ccnc1)Nc1nc(-c2ccccn2)nc2sccc12 | 76 to 100% |  | 
O=C(CCc1cnn(-c2ccccc2)c1)Nc1nnc(-c2ccccn2)[nH]1 [drawing 1383] | 76 to 100% |  | 
CC(C)NC(=O)Nc1cccc(C(=O)Nc2nnc(-c3ccccn3)[nH]2)c1 [drawing 1384] | 25 to 50% |  | 
COc1ccc(CCC(=O)Nc2nnc(-c3ccccn3)[nH]2)cc1F [drawing 1385] | 1 to 25% |  | 
O=C(Nc1nnc(-c2ccccn2)[nH]1)c1ccc2c(c1)CCO2 [drawing 1386] | 76 to 100% |  | 
O=C(Cc1c[nH]c2ccccc12)Nc1nnc(-c2ccccn2)[nH]1 [drawing 1387] | 1 to 25% |  | 
O=C(COc1ccc(F)cc1F)Nc1nnc(-c2ccccn2)[nH]1 [drawing 1388] | 51 to 75% |  | 
O=C(Nc1nnc(-c2ccccn2)[nH]1)C1CCn2c(cnc2-c2ccccc2)C1 (centres unmarked) [drawing 1389] | 1 to 25% |  | 
COc1cccc(CC(=O)Nc2nnc(-c3ccccn3)[nH]2)c1 [drawing 1390] | 25 to 50% |  | 
CCOCCNc1nc(-c2nccn2C)nc2sc(-c3ccccc3)c(-c3ccccc3)c12 [drawing 2402] |  | 76 to 100% | 76 to 100%
Cn1ccnc1-c1nc(NCCOC2CC2)c2c(-c3ccccc3)c(-c3ccccc3)sc2n1 [drawing 2403] |  | 76 to 100% | 76 to 100%
COCC(C)Nc1nc(-c2nccn2C)nc2sc(-c3ccccc3)c(-c3ccccc3)c12 (centres unmarked) [drawing 2404] |  | 76 to 100% | 76 to 100%
CC(CO)Nc1nc(-c2nccn2C)nc2sc(-c3ccccc3)c(-c3ccccc3)c12 (centres unmarked) [drawing 2405] |  | 1 to 25% | 51 to 75%
Cn1ccnc1-c1nc(NCCCO)c2c(-c3ccccc3)c(-c3ccccc3)sc2n1 [drawing 2406] |  | 26 to 50% | 51 to 75%
COCCNc1nc(-c2nccn2C)nc2sc(-c3ccccc3)c(-c3ccccc3Cl)c12 [drawing 2407] |  | 1 to 25% | 51 to 75%
COCCNc1nc(-c2nccn2C)nc2sc(-c3ccccc3Cl)c(-c3ccccc3)c12 [drawing 2408] |  | 1 to 25% | 1 to 25%

Compound | inhibition at 30 µM [1] | inhibition at 30 µM [2] | inhibition at 30 µM [3]
COCCNc1nc(-c2nccn2C)nc2sc(-c3ccncc3)c(-c3ccccc3)c12 [drawing 2409] |  | 51 to 75% | 76 to 100%
COCCNc1nc(-c2cn(C)cn2)nc2sc(-c3ccccc3)c(-c3ccccc3)c12 [drawing 2410] |  | 76 to 100% | 76 to 100%
COCCNc1nc(-c2nccn2C)nc2sc(C)c(-c3ccccc3)c12 [drawing 2411] |  | 26 to 50% | 1 to 25%
COCCNc1nc(-c2cn(C)cn2)nc2sc(C)c(-c3ccccc3)c12 [drawing 2412] |  | 26 to 50% | 1 to 25%
COCCNc1nc(-c2nccn2C)nc2sc(-c3cccc(OC)c3)c(-c3ccccc3)c12 [drawing 2413] |  | 76 to 100% | 76 to 100%
CC(C)COc1ccc(-c2c(-c3ccccc3)sc3c(O)nc(-c4nccn4C)nc23)cn1 [drawing 2414] |  | 1 to 25% | 51 to 75%
Cn1ccnc1-c1nc(O)c2sc(-c3ccccc3)c(-c3ccccc3)c2n1 [drawing 2415] |  | 0% | 1 to 25%
COCCNc1nc(-c2nccn2C)nc2sc(-c3ccccc3)c(-c3ccc(OC)cc3)c12 [drawing 2416] |  | 51 to 75% | 76 to 100%
COCCNc1nc(-c2nccn2C)nc2sc(C3CCOCC3)c(-c3ccccc3)c12 [drawing 2417] |  | 76 to 100% | 76 to 100%
COCCNc1nc(-c2cccc(N)n2)nc2sc(-c3ccccc3)c(-c3ccccc3)c12 [drawing 2418] |  | 26 to 50% | 26 to 50%
Cn1ccnc1-c1nc(O)c2sc(-c3ccccc3)c(-c3cccc(C(F)(F)F)c3)c2n1 [drawing 2419] |  | 26 to 50% | 26 to 50%
COc1ccc(-c2c(-c3ccccc3)sc3c(O)nc(-c4nccn4C)nc23)cn1 [drawing 2420] |  | 26 to 50% | 26 to 50%
Cc1sc2c(O)nc(-c3nccn3C)nc2c1-c1ccccc1 [drawing 2421] |  | 26 to 50% | 76 to 100%
Cn1ccnc1-c1nc(O)c2sc(-c3ccccc3)c(-c3ccccc3Cl)c2n1 [drawing 2422] |  | 51 to 75% | 76 to 100%
COCCNc1nc(-c2nccn2C)nc2sc(-c3ccccc3)c(-c3ccncc3)c12 [drawing 2423] |  | 1 to 25% | 51 to 75%
COCCNc1nc(-c2nccn2C)nc2sc(-c3ccc(OC)cc3)c(-c3ccccc3)c12 [drawing 2424] |  | 51 to 75% | 76 to 100%
Cn1ccnc1-c1nc(O)c2scc(-c3cccc(C(F)(F)F)c3)c2n1 [drawing 2425] |  | 51 to 75% | 76 to 100%
Cc1sc2c(O)nc(-c3nccn3C)nc2c1-c1cccc(C(F)(F)F)c1 [drawing 2426] |  | 0% | 0%
Cc1sc2c(O)nc(-c3nccn3C)nc2c1-c1ccc(OCC(C)C)nc1 [drawing 2427] |  | 1 to 25% | 1 to 25%
COc1ccc(-c2c(C)sc3c(O)nc(-c4nccn4C)nc23)cn1 [drawing 2428] |  | 1 to 25% | 1 to 25%

Compound | inhibition at 30 µM [1] | inhibition at 30 µM [2] | inhibition at 30 µM [3]
Cc1sc2c(O)nc(-c3nccn3C)nc2c1-c1ccccc1Cl [drawing 2429] |  | 1 to 25% | 26 to 50%
Cn1ccnc1-c1nc(O)c2scc(-c3cccc(OC(F)(F)F)c3)c2n1 [drawing 2430] |  | 51 to 75% | 76 to 100%
Cn1cnc(-c2nc(O)c3scc(-c4cccc(C(F)(F)F)c4)c3n2)c1 [drawing 2431] |  | 0% | 0%
CC(C)COc1ccc(-c2csc3c(O)nc(-c4cn(C)cn4)nc23)cn1 [drawing 2432] |  | 26 to 50% | 76 to 100%
Cn1cnc(-c2nc(O)c3scc(-c4cccc(OC(F)(F)F)c4)c3n2)c1 [drawing 2433] |  | 0% | 0%
Oc1nc(-c2ccncn2)nc2c(-c3cccc(C(F)(F)F)c3)csc12 [drawing 2434] |  | 0% | 26 to 50%
Oc1nc(-c2ncccn2)nc2c(-c3cccc(C(F)(F)F)c3)csc12 [drawing 2435] |  | 26 to 50% | 1 to 25%
CC(C)Oc1ccc(-c2csc3c(O)nc(-c4nccn4C)nc23)cc1F [drawing 2436] |  | 0% | 1 to 25%
Cc1sc2c(O)nc(-c3nccn3C)nc2c1-c1ccc(OC(C)C)c(F)c1 [drawing 2437] |  | 0% | 51 to 75%
CC(C)Oc1ccc(-c2c(-c3ccccc3)sc3c(O)nc(-c4nccn4C)nc23)cc1F [drawing 2438] |  | 0% | 1 to 25%
COc1ccc(-c2csc3c(O)nc(-c4nccn4C)nc23)cn1 [drawing 2440] |  | 76 to 100% | 76 to 100%
Cn1ccnc1-c1nc(O)c2scc(-c3ccccc3)c2n1 [drawing 2441] |  | 51 to 75% | 76 to 100%
Cn1ccnc1-c1nc(O)c2scc(-c3ccccc3Cl)c2n1 [drawing 2442] |  | 1 to 25% | 51 to 75%
Cn1ccnc1-c1nc(O)c2scc(-c3ccc(F)cc3F)c2n1 [drawing 2443] |  | 1 to 25% | 51 to 75%
Cn1ccnc1-c1nc(O)c2scc(-c3cccc(Cl)c3)c2n1 [drawing 2444] |  | 0% | 51 to 75%
COC(C)(C)c1ccc(-c2csc3c(O)nc(-c4nccn4C)nc23)cc1 [drawing 2445] |  | 0% | 26 to 50%
Cn1ccnc1-c1nc(O)c2scc(-c3ccc(C(C)(C)C)cc3)c2n1 [drawing 2446] |  | 0% | 1 to 25%
COCCNc1nc(-c2ccccn2)nc2sc(-c3ccccc3)c(-c3ccccn3)c12 [drawing 2447] |  | 0% | 0%
Cc1sc2c(O)nc(-c3nccn3C)nc2c1-c1ccc(F)cc1F [drawing 2448] |  | 0% | 51 to 75%
COCCNc1nc(-c2nccn2C)nc2sc(-c3ccccc3)c(-c3ccccn3)c12 [drawing 2449] |  | 76 to 100% | 76 to 100%
